Test results taken from paper PMC12518639, “Apomorphine is a novel necroptosis inhibitor targeting mixed lineage kinase domain-like protein oligomerization” (Cell Death Discovery, 2025).

Tests used:
[1] = tested on: DSS-induced colitis in C57BL/6 mice; assay: DSS-induced colitis model; format: in vivo, mouse
Method: For DSS-induced colitis, male C57BL/6 mice aged 6–8 weeks (Central Lab Animal Inc., S. Korea) were administered 2.5% DSS (36–50 kDa, 9011-18-1, MP Biomedicals, Solon, OH, USA) in their drinking water for 8 days. The 2.5% DSS-supplemented drinking water was prepared by dissolving 12.5 g of DSS powder in 500 mL of distilled water and was freshly prepared and replaced daily throughout the 8 days. Body weight and DAI score were recorded daily. The DAI score was calculated based on weight loss (no weight loss, 1–5%, 5–10%, 10–15%, and >15% weight loss, respectively, representing DAI scores of 0, 1, 2, 3, and 4), stool consistency/diarrhea (normal = 0, loose stools = 2, and watery diarrhea = 4), and bleeding (no bleeding = 0, slight bleeding = 2, gross bleeding = 4). At the end of the experiment, the mice were sacrificed, and tissue samples were collected.
Each mouse colon was removed, measured in length, cut open, fixed in Bouin’s fixative (50% ethanol/5% acetic acid in distilled water), and embedded in paraffin. Tissue sections were stained with H&E (Sigma-Aldrich). Histological evaluation of the colitis lesions along the entire colon was performed using the scoring system: degree of crypt structural damage (0–3), degree of inflammatory cell infiltration (0–3), and degree of submucosal edema (0–3). For PAS staining, deparaffinized and rehydrated tissue sections were treated with 0.5% periodic acid (10450-60-9, Junsei Chemical Co., Tokyo, Japan) and stained with Schiff’s reagent (3952016, Sigma-Aldrich). Sections were dehydrated in ethyl alcohol and coverslipped.

Wt-mMLKL = molecular target: T1, Wt-mMLKL (Mus musculus, UniProt Q9D2Y4); assay: SPR binding to Wt-mMLKL; settings: CM5 chip, 25 °C
T1 construct: purchased MyBioSource MBS1379843
T1 sequence (Q9D2Y4 whole entry): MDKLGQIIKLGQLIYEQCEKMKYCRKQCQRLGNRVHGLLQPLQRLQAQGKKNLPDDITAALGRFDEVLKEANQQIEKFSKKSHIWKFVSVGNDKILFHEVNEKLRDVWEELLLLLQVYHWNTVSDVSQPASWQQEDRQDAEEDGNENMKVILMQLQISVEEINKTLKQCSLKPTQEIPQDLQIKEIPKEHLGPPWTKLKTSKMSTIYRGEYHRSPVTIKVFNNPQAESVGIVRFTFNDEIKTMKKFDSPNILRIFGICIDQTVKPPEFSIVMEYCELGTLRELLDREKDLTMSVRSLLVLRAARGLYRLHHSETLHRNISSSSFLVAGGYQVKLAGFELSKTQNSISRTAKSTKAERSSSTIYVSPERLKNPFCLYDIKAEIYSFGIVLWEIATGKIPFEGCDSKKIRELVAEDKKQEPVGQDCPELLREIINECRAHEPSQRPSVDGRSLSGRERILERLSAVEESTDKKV
Excerpt: The hMLKL plasmid (RC213152, OriGene, Rockville, MD, USA), and recombinant Wt-hMLKL (ab241453, Abcam) and Wt-mMLKL (MBS1379843, MyBioSource, San Diego, CA, USA) proteins were purchased. Nt-hMLKL (2–154), Nt-mMLKL (1–180), and Ct-hMLKL (183–471) were generated using the pBT7-N-His vector. Nt-hMLKL^C86A, Nt-hMLKL^F148A, -hMLKL^C86A/L89A/D94A, and Nt-hMLKL^R145A/R146A/F148A/M150A were generated using the Site-directed Mutagenesis Kit (EZ004S, Enzynomics, S. Korea). These constructs were subcloned into pBT7-N-His and pET-15b plasmid vectors. E. coli BL21 cells transformed with the cloned expression vectors were cultured in LB medium and supplemented with 100 μg/mL ampicillin until an OD at 600 nm of 0.5–0.6 was reached. The cultures were induced by 1 mM IPTG (367-93-1, Sigma-Aldrich). The cells were lysed and centrifuged. The clear supernatants were subjected to Ni-NTA affinity chromatography (175018169, QIAGEN, Hilden, Germany). Plasmids encoding mMLKL (1–464)–gyrase fusion constructs were kindly provided by Prof. […]
The interactions of Wt-hMLKL, Wt-mMLKL, Nt-mMLKL, Nt, and Ct-hMLKL proteins with Re-APO or Ox-APO were detected through SPR analysis using Biacore™ T200 (Cytiva, Marlborough, MA, USA). […] Sensorgrams were recorded and analyzed in real-time using the control software in the BIAcore T200 system. All data were analyzed using the BIA evaluation software (Cytiva).

Nt-hMLKL (2–154) = molecular target: T2, Nt-hMLKL (2–154) (Homo sapiens, UniProt Q8NB16); assay: SPR binding to Nt-hMLKL; settings: for Kd: SPR, CM5 chip, 25 °C
T2 construct: Nt-hMLKL (2–154), Nt-mMLKL (1–180), and Ct-hMLKL (183–471) were generated using the pBT7-N-His vector; His (N); made in house; host or cells: E. coli BL21
T2 sequence (Q8NB16 2-154): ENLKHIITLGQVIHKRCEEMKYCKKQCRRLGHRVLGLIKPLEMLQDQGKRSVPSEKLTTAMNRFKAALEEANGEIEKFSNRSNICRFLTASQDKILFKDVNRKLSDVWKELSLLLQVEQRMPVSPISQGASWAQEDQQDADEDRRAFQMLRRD
Excerpt: The hMLKL plasmid (RC213152, OriGene, Rockville, MD, USA), and recombinant Wt-hMLKL (ab241453, Abcam) and Wt-mMLKL (MBS1379843, MyBioSource, San Diego, CA, USA) proteins were purchased. Nt-hMLKL (2–154), Nt-mMLKL (1–180), and Ct-hMLKL (183–471) were generated using the pBT7-N-His vector. Nt-hMLKL^C86A, Nt-hMLKL^F148A, -hMLKL^C86A/L89A/D94A, and Nt-hMLKL^R145A/R146A/F148A/M150A were generated using the Site-directed Mutagenesis Kit (EZ004S, Enzynomics, S. Korea). These constructs were subcloned into pBT7-N-His and pET-15b plasmid vectors. E. coli BL21 cells transformed with the cloned expression vectors were cultured in LB medium and supplemented with 100 μg/mL ampicillin until an OD at 600 nm of 0.5–0.6 was reached. The cultures were induced by 1 mM IPTG (367-93-1, Sigma-Aldrich). The cells were lysed and centrifuged. The clear supernatants were subjected to Ni-NTA affinity chromatography (175018169, QIAGEN, Hilden, Germany). Plasmids encoding mMLKL (1–464)–gyrase fusion constructs were kindly provided by Prof. James Murphy (Cell Signalling and Cell Death Division, The Walter and Eliza Hall Institute of Medical Research, Parkville, Victoria 3052, Australia).
The interactions of Wt-hMLKL, Wt-mMLKL, Nt-mMLKL, Nt, and Ct-hMLKL proteins with Re-APO or Ox-APO were detected through SPR analysis using Biacore™ T200 (Cytiva, Marlborough, MA, USA). Each MLKL protein was immobilized on a CM5 sensor chip. To derive the Rligand values, coupling processes were performed based on the molecular weights of the MLKL protein (MW ligand) and Re-APO or Ox-APO (MW analyte). Re-APO or Ox-APO was injected into an HBS buffer (10 mM HEPES, 150 mM NaCl, 3.4 mM EDTA, and 0.005% Tween 20, pH 7.4) at 25 °C (10 μL/min flow rate). Sensorgrams were recorded and analyzed in real-time using the control software in the BIAcore T200 system. All data were analyzed using the BIA evaluation software (Cytiva).

[2] = 15 mg/kg i.p. daily, 2.5% DSS 8 days

Structure (SMILES) | colitis symptoms and pathological changes (H&E, PAS) ([1]; 0.15, 1.5 or 15 mg/kg i.p. daily, oxidative state not determined) | Kd (Wt-mMLKL) [µM] | Kd (Nt-hMLKL (2–154)) [µM] | fold difference of binding versus Re-APO (Nt-hMLKL (2–154); from KD values) [fold] | average histologic score ([1]; 1.5 mg/kg i.p. daily, 2.5% DSS 8 days) | average histologic score [1, 2] | DAI score and colon length ([1]; i.p. daily, 2.5% DSS 8 days) | alleviation of DSS-induced colitis symptoms relative to Ox-APO ([1]; at the same concentration)
CN1CCc2cccc3c2[C@@H]1Cc1ccc(O)c(O)c1-3 [S62, (6aS)-6-methyl-5,6,6a,7-tetrahydro-4H-dibenzo[de,g]quinoline-10,11-diol] | significantly alleviated |  |  |  |  |  |  | 
CN1CCc2cccc3c4c(cc1c23)C=CC(=O)C4=O [Ox-APO] |  | 0.000381 | 1.31 | ~1000 | 3.0 | 1.2 | more effective than Re-APO | 
CN1CCc2cccc3c2C1Cc1ccc(O)c(O)c1-3 (centres unmarked) [Re-APO] |  | 0.0229 | 1140 |  |  | 2.6 |  | about ten times weaker than Ox-APO
